According to patent publication US20070191291A1, “Compound antibacterial drugs comprising n-acetyl-d-glucosamine” (priority 2003, published 2007):

Columns and labels:
Listeria = assay: Test Example 2: preventing formation of bacterial CGC in vitro (K-B method); assay type: cell-based; conditions: compound preparation N-acetyl-D-glucosamine (100 mg) and chloramphenicol (400 mg); control chloramphenicol (400 mg)
Procedure: (§1) E. coli (No. 33310, purchased from Chengdu Institute of Biological Products, the Ministry of Public Health) was used in the tests. Grid design was performed by using antibiotic with different concentrations and N-acetyl-D-glucosamine having an amount of from 10 mg to 300 mg. Streak plates were conducted separately, and K-B method was employed for drugs. Colonies at marginal part of drug inhibition zone were picked and were observed under microscope. If cell length was more than 50 μm and cell number was more than 5 in each visual field, it was deemed as CGC positive and was marked with “+”; while if cell length was not greater than 50 μm and cell number was within the range from 0 to 4 in each visual field, it was deemed as CGC negative and was marked with “−”. At this time, the ratio of two substances was called “effective ratio”.
(§2) Effects tests of compound preparation comprising N-acetyl-D-glucosamine and antibiotics for preventing the formation of bacterial CGC in vitro.
(§3) The tests were carried out in vitro, wherein gram-negative amphimicrodes, gram-negative anaerobes and gram-positive aerobes were separately coated on streak plates, test drugs and control drugs were separately dissolved with same volume of sterile water for injection, 10 μl of each drug was used for preparing drug-sensitive paper, K-B method was employed in the tests of drugs, and the inhibition situations of CGC formation were observed.

E. coli = assay: as above; assay type: cell-based; conditions: compound preparation N-acetyl-D-glucosamine (100 mg) and chloramphenicol (400 mg); control chloramphenicol (400 mg)
Procedure: as §1, §2, §3

Diphtheroid bacillus = assay: as above; assay type: cell-based; conditions: compound preparation N-acetyl-D-glucosamine (100 mg) and chloramphenicol (400 mg); control chloramphenicol (400 mg)
Procedure: as §1, §2, §3

Bacillus cereus = assay: as above; assay type: cell-based; conditions: compound preparation N-acetyl-D-glucosamine (100 mg) and chloramphenicol (400 mg); control chloramphenicol (400 mg)
Procedure: as §1, §2, §3

Bacillus proteus = assay: as above; assay type: cell-based; conditions: compound preparation N-acetyl-D-glucosamine (100 mg) and chloramphenicol (400 mg); control chloramphenicol (400 mg)
Procedure: as §1, §2, §3

Bacteroides fragilis = assay: as above; assay type: cell-based; conditions: compound preparation N-acetyl-D-glucosamine (100 mg) and chloramphenicol (400 mg); control chloramphenicol (400 mg)
Procedure: as §1, §2, §3

Nucleic Acid Bacter = assay: as above; assay type: cell-based; conditions: compound preparation N-acetyl-D-glucosamine (100 mg) and chloramphenicol (400 mg); control chloramphenicol (400 mg)
Procedure: as §1, §2, §3

Klebsiella = assay: as above; assay type: cell-based; conditions: compound preparation N-acetyl-D-glucosamine (100 mg) and chloramphenicol (400 mg); control chloramphenicol (400 mg)
Procedure: as §1, §2, §3

Citro Bacter = assay: as above; assay type: cell-based; conditions: compound preparation N-acetyl-D-glucosamine (100 mg) and chloramphenicol (400 mg); control chloramphenicol (400 mg)
Procedure: as §1, §2, §3

[1] = system: rats infected and not infected by Bacillus typhi murium; assay type: in vivo, Wistar rats; conditions: rats infected or not by Bacillus typhi murium; N-acetyl-D-glucosamine (100 mg)+chloramphenical (400 mg) vs only chloramphenicol; consecutive week; 15 rats per group
[2] = system: irritable bowel syndrome (IBS) caused by bacterial CGC; assay: Test Example 5: preventing irritable bowel syndrome (IBS) caused by bacterial CGC; assay type: in vivo, rats
Description: On this basis, the rats were subjected to stimulations such as electric stimulation, intragastric administration with fructus zanthoxyli water, cold, constraint etc. in order to induce IBS, and the incidence rates of IBS of two groups were observed.

In the case of O=C(N[C@H](CO)[C@H](O)c1ccc([N+](=O)[O-])cc1)C(Cl)Cl [Chloramphenicol, chloramphenicol], the CGC formation (Listeria) is reported as “+ (If cell length was more than 50 μm and cell number was more than 5 in each visual field, it was deemed as CGC positive and was marked with “+”)”, the CGC formation (E. coli) is reported as “+ (If cell length was more than 50 μm and cell number was more than 5 in each visual field, it was deemed as CGC positive and was marked with “+”)” and the CGC formation (Diphtheroid bacillus) is reported as “+ (If cell length was more than 50 μm and cell number was more than 5 in each visual field, it was deemed as CGC positive and was marked with “+”)”. The CGC formation (Bacillus cereus) was “+ (If cell length was more than 50 μm and cell number was more than 5 in each visual field, it was deemed as CGC positive and was marked with “+”)”, the CGC formation (Bacillus proteus) was “+ (If cell length was more than 50 μm and cell number was more than 5 in each visual field, it was deemed as CGC positive and was marked with “+”)” and the CGC formation (Bacteroides fragilis) was “+ (If cell length was more than 50 μm and cell number was more than 5 in each visual field, it was deemed as CGC positive and was marked with “+”)”. The CGC formation (Nucleic Acid Bacter) was “+ (If cell length was more than 50 μm and cell number was more than 5 in each visual field, it was deemed as CGC positive and was marked with “+”)”, the CGC formation (Klebsiella) was “+ (If cell length was more than 50 μm and cell number was more than 5 in each visual field, it was deemed as CGC positive and was marked with “+”)” and the CGC formation (Citro Bacter) was “+ (If cell length was more than 50 μm and cell number was more than 5 in each visual field, it was deemed as CGC positive and was marked with “+”)”. The “positive rates of stool CGC and intestinal mucosa CGC” value [1] was 100%, the “incidence rate of IBS” value ([2]; first of three values given respectively: electric stimulation) was 33% and the “CGCs in the rat stools after one week of drug withdrawal” value ([2]; rats, effective dosage for consecutive 10 days, 30 rats per group) was “still present”. The “CGCs in the stools of the rats” value ([2]; rats, effective dosage for consecutive 10 days, stools observed during administration and within 1 week after drug withdrawal, 30 rats per group) was “a large amount of CGCs appeared”, the “incidence rate of IBS” value ([2]; second of three values given respectively: intragastric administration with fructus zanthoxyli water) was 33% and the “incidence rate of IBS” value ([2]; third of three values given respectively: cold, constraint etc.) was 33%.
